Reference: ChEMBL document CHEMBL3886249, “Serine/threonine kinase inhibitors” (2015)

Target: Mitogen-activated protein kinase 1 (Homo sapiens, UniProt P28482)
Experiment: Enzymatic Assay: Compounds were tested in an enzymatic assay using human ERK-2 (Mitogen Activated Kinase 1), recombinantly expressed as an n-terminal 6-His fusion protein in E. coli and corresponding to aa 8-360. […] Test compounds were diluted in DMSO in 3-fold serial dilutions at 100x final concentrations.

Chain of Mitogen-activated protein kinase 1 (P28482 whole entry, the tested form may be a part): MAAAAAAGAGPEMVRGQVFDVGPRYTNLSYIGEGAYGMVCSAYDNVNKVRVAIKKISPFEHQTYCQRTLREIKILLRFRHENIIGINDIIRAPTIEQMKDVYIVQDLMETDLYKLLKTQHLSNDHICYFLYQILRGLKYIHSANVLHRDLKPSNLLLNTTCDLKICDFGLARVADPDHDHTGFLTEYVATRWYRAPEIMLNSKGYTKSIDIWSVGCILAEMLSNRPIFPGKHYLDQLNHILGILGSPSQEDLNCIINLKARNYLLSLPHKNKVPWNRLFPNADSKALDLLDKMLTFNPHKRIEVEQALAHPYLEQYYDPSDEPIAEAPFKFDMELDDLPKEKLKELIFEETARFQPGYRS

IC50	SMILES
2.39 nM	CC1CC(Nc2ncc3c(n2)CN(C(=O)N[C@H](CO)c2ccc(Cl)c(F)c2)CC3)CCO1 (some centres not stated)
144 nM	CC(C)Nc1ncc2c(n1)CN(C(=O)N[C@@H](c1ccc(C(F)(F)F)c(F)c1)c1cccc(=O)[nH]1)CC2
